Structures can show the parent of a compound that is named as a salt.
Each compound was assayed against IRAK4 (Homo sapiens (Human), UniProt Q9NWZ3) (assay: IRAK4 Kinase Assay (IMAP fluorescence polarization)). Conditions: 0.5 nM GST tagged IRAK4, 100 μM ATP, 30 minutes at 25° C., IMAP FP.
Format: biochemical
Protocol: The kinase activity of IRAK4 is determined by its ability to catalyze the phosphorylation of a fluorescent polypeptide substrate. The extent of phosphorylation is measured using the IMAP technology (Molecular Devices) where the phosphorylated fluorescent substrate binds to the large M (III)-based nanoparticles which reduces the rotational speed of the substrate and thus increases its fluorescent polarization (FP).
20 μL reaction mixture contains 10 mM TriHCl, pH 7.2, 0.5 nM GST tagged IRAK4 (SignalChem), 100 nM fluorescent peptide substrate (RP7030, Molecular Devices), 100 μM ATP, 1 mM DDT, 1 mM MgCl2, and 0.01% Tween 20. The reaction is initiated by the addition of ATP. After incubation for 30 minutes at 25° C., 60 μL of Progressive IMAP Reagent (Molecular Devices) is added to stop the reaction. Change in RP7030's FP is determined by a FP reader (Analyst HT, LJL BioSystems).

Sequence of IRAK4 (Q9NWZ3 whole entry): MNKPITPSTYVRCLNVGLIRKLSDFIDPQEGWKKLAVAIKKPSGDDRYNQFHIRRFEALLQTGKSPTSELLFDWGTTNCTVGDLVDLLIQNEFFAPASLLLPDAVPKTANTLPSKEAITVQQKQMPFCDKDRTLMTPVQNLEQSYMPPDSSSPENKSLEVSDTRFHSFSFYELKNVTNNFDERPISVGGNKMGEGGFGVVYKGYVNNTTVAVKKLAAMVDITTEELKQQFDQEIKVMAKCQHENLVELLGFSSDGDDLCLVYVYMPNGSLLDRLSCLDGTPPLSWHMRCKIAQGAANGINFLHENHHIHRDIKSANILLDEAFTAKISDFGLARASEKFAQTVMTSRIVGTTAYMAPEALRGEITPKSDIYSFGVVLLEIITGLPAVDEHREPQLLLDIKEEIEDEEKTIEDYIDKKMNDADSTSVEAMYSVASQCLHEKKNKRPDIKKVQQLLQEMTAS

First: Cn1cc(NC(=O)c2ccc3ccc(N[C@@H]4CCCC[C@@H]4N)nn23)c(C#N)n1 [Example 29, 2-{[(1R,2S)-2-aminocyclohexyl]amino}-N-(3-cyano-1-methyl-1H-pyrazol-4-yl)pyrrolo[1,2-b]pyridazine-7-carboxamide trifluoroacetate]
Second: Cn1cc(NC(=O)c2ccc3ccc(N[C@@H]4CCCC(F)(F)[C@@H]4N)nn23)c(C#N)n1 [Example 52, 2-{[(1R,2R)-2-amino-3,3-difluoro-cyclohexyl]amino}-N-(3-cyano-1-methyl-1H-pyrazol-4-yl)pyrrolo[1,2-b]pyridazine-7-carboxamide trifluoroacetate]
The IC50 of the first is 61-fold lower: 0.7 nM for the first, 43 nM for the second. The first is the more potent here.

Going from `Cn1cc(NC(=O)c2ccc3ccc(N4CCCNCC4)nn23)c(C#N)n1` [Example 30, N-(3-cyano-1-methyl-1H-pyrazol-4-yl)-2-(1,4-diazepan-1-yl)pyrrolo[1,2-b]pyridazine-7-carboxamide trifluoroacetate] to `N#Cc1cscc1NC(=O)c1ccc2ccc(N3CCCNCC3)nn12` [Example 68, N-(4-cyanothiophen-3-yl)-2-(1,4-diazepan-1-yl)pyrrolo[1,2-b]pyridazine-7-carboxamide trifluoroacetate], the IC50 rises from 27 nM to 190 nM (7-fold).

Compared with `Cn1cc(NC(=O)c2ccc3ccc(N4CC5CCC4CN5)nn23)c(C#N)n1` (stereo not shown) [Example 31, N-(3-cyano-1-methyl-1H-pyrazol-4-yl)-2-(2,5-diazabicyclo[2.2.2]oct-2-yl)pyrrolo[1,2-b]pyridazine-7-carboxamide trifluoroacetate], `N#Cc1cscc1NC(=O)c1ccc2ccc(N3CC4CCC3CN4)nn12` (stereo not shown) [Example 74, N-(4-cyanothiophen-3-yl)-2-(2,5-diazabicyclo[2.2.2]oct-2-yl)pyrrolo[1,2-b]pyridazine-7-carboxamide trifluoroacetate] is 5.4-fold higher in IC50: 25 nM for the first, 134 nM for the second. The first is the more potent here.

Going from `Cn1cc(NC(=O)c2ccc3ccc(N[C@@H]4CCCC(F)(F)[C@@H]4N)nn23)c(Br)n1` [Example 32, 2-{[(1R,2R)-2-amino-3,3-difluoro-cyclohexyl]amino}-N-(3-bromo-1-methyl-1H-pyrazol-4-yl)pyrrolo[1,2-b]pyridazine-7-carboxamide trifluoroacetate] to `Cn1cc(NC(=O)c2ccc3ccc(N[C@@H]4CCCC(F)(F)[C@@H]4N)nn23)c(Cl)n1` [Example 48, 2-{[(1R,2R)-2-amino-3,3-difluoro-cyclohexyl]amino}-N-(3-chloro-1-methyl-1H-pyrazol-4-yl)pyrrolo[1,2-b]pyridazine-7-carboxamide acetate], the IC50 falls from 275 nM to 138 nM (2-fold).

Compared with `Cn1ncc(NC(=O)c2ccc3ccc(N[C@@H]4CCCC[C@@H]4N)nn23)c1C(F)(F)F` [Example 45, 2-{[(1R,2S)-2-aminocyclohexyl]amino}-N-[1-methyl-5-(trifluoromethyl)-1H-pyrazol-4-yl]pyrrolo[1,2-b]pyridazine-7-carboxamide trifluoroacetate], `N[C@H]1CCCC[C@H]1Nc1ccc2ccc(C(=O)Nc3cscc3Br)n2n1` [Example 63, 2-{[(1R,2S)-2-aminocyclohexyl]amino}-N-(4-bromothiophen-3-yl)pyrrolo[1,2-b]pyridazine-7-carboxamide trifluoroacetate] is 19-fold lower in IC50: 136 nM for the first, 7 nM for the second. The second is the more potent here.

First: Cn1cc(NC(=O)c2ccc3ccc(N4CC5CCC(C4)N5)nn23)c(C(F)F)n1 [Example 46, 2-(3,8-diazabicyclo[3.2.1]oct-3-yl)-N-[3-(difluoromethyl)-1-methyl-1H-pyrazol-4-yl]pyrrolo[1,2-b]pyridazine-7-carboxamide trifluoroacetate]
Second: Cn1cc(NC(=O)c2ccc3ccc(N4CC5CCC(C4)N5)nn23)c(C(F)(F)F)n1 [Example 47, 2-(3,8-diazabicyclo[3.2.1]oct-3-yl)-N-[1-methyl-3-(trifluoromethyl)-1H-pyrazol-4-yl]pyrrolo[1,2-b]pyridazine-7-carboxamide trifluoroacetate]
The IC50 of the first is 9-fold lower: 1 nM for the first, 9 nM for the second.

`Cn1cc(NC(=O)c2ccc3ccc(N[C@@H]4CCCC[C@@H]4O)nn23)c(Cl)n1` [Example 53, N-(3-chloro-1-methyl-1H-pyrazol-4-yl)-2-{[(1R,2S)-2-hydroxycyclohexyl]amino}pyrrolo[1,2-b]pyridazine-7-carboxamide trifluoroacetate] and `CC(C)n1cc(NC(=O)c2ccc3ccc(N[C@@H]4CCCC[C@@H]4O)nn23)c(C(F)F)n1` [Example 55, N-[3-(difluoromethyl)-1-(1-methylethyl)-1H-pyrazol-4-yl]-2-{[(1R,2S)-2-hydroxycyclohexyl]amino}pyrrolo[1,2-b]pyridazine-7-carboxamide trifluoroacetate] are within 1.5-fold of each other in IC50: 55 nM for the first, 53 nM for the second.

Compared with `CC(C)(C)n1cc(NC(=O)c2ccc3ccc(N[C@@H]4CCCC[C@@H]4O)nn23)c(C(F)F)n1` [Example 54, N-[1-tert-butyl-3-(difluoromethyl)-1H-pyrazol-4-yl]-2-{[(1R,2S)-2-hydroxycyclohexyl]amino}pyrrolo[1,2-b]pyridazine-7-carboxamide trifluoroacetate], `N[C@H]1CCCC[C@H]1Nc1ccc2ccc(C(=O)Nc3cscc3C(F)F)n2n1` [Example 72, 2-{[(1R,2S)-2-aminocyclohexyl]amino}-N-[4-(difluoromethyl)thiophen-3-yl]pyrrolo[1,2-b]pyridazine-7-carboxamide trifluoroacetate] is 27-fold lower in IC50: 640 nM for the first, 24 nM for the second. The second is the more potent here.

Compared with `O=C(Nc1cscc1C(F)F)c1ccc2ccc(N3CC4CCC3CN4)nn12` (stereo not shown) [Example 56, 2-(2,5-diazabicyclo[2.2.2]oct-2-yl)-N-[4-(difluoromethyl)thiophen-3-yl]pyrrolo[1,2-b]pyridazine-7-carboxamide trifluoroacetate], `O=C(Nc1cscc1Br)c1ccc2ccc(N3CC4CCC3CN4)nn12` (stereo not shown) [Example 62, N-(4-bromothiophen-3-yl)-2-(2,5-diazabicyclo[2.2.2]oct-2-yl)pyrrolo[1,2-b]pyridazine-7-carboxamide trifluoroacetate] is 4.4-fold higher in IC50: 95 nM for the first, 415 nM for the second.

Compared with `O=C(Nc1ccccc1Br)c1ccc2ccc(N3CCCNCC3)nn12` [Example 57, N-(2-bromophenyl)-2-(1,4-diazepan-1-yl)pyrrolo[1,2-b]pyridazine-7-carboxamide trifluoroacetate], `O=C(Nc1ccccc1Cl)c1ccc2ccc(N3CCCNCC3)nn12` [Example 59, N-(2-chlorophenyl)-2-(1,4-diazepan-1-yl)pyrrolo[1,2-b]pyridazine-7-carboxamide trifluoroacetate] is 3.3-fold lower in IC50: 3960 nM for the first, 1200 nM for the second.

First: N[C@H]1CCCC[C@H]1Nc1ccc2ccc(C(=O)Nc3ccccc3Br)n2n1 [Example 58, 2-{[(1R,2S)-2-aminocyclohexyl]amino}-N-(2-bromo-phenyl)pyrrolo[1,2-b]pyridazine-7-carboxamide trifluoroacetate]
Second: N[C@H]1CCCC[C@H]1Nc1ccc2ccc(C(=O)Nc3ccccc3Cl)n2n1 [Example 65, 2-{[(1R,2S)-2-aminocyclohexyl]amino}-N-(2-chlorophenyl)pyrrolo[1,2-b]pyridazine-7-carboxamide trifluoroacetate]
The IC50 of the first is 1.8-fold higher: 11 nM for the first, 6 nM for the second. The second is the more potent here.

Going from `O=C(Nc1cscc1Br)c1ccc2ccc(N3CCCNCC3)nn12` [Example 60, N-(4-bromothiophen-3-yl)-2-(1,4-diazepan-1-yl)pyrrolo[1,2-b]pyridazine-7-carboxamide trifluoroacetate] to `O=C(Nc1cscc1C(F)F)c1ccc2ccc(N3CCCNCC3)nn12` [Example 69, 2-(1,4-diazepan-1-yl)-N-[4-(difluoromethyl)thiophen-3-yl]pyrrolo[1,2-b]pyridazine-7-carboxamide trifluoroacetate], the IC50 falls from 548 nM to 151 nM (3.6-fold).

Compared with `O=C(Nc1ccccc1Br)c1ccc2ccc(N3CC4CCC3CN4)nn12` (stereo not shown) [Example 61, N-(2-bromophenyl)-2-(2,5-diazabicyclo[2.2.2]oct-2-yl)pyrrolo[1,2-b]pyridazine-7-carboxamide trifluoroacetate], `O=C(Nc1ccccc1Cl)c1ccc2ccc(N3CC4CCC3CN4)nn12` (stereo not shown) [Example 64, N-(2-chlorophenyl)-2-(2,5-diazabicyclo[2.2.2]oct-2-yl)pyrrolo[1,2-b]pyridazine-7-carboxamide trifluoroacetate] is 2.7-fold lower in IC50: 1660 nM for the first, 611 nM for the second. The second is the more potent here.

First: O=C(Nc1ccsc1Cl)c1ccc2ccc(N3CCCNCC3)nn12 [Example 66, N-(2-chlorothiophen-3-yl)-2-(1,4-diazepan-1-yl)pyrrolo[1,2-b]pyridazine-7-carboxamide trifluoroacetate]
Second: N#Cc1sccc1NC(=O)c1ccc2ccc(N3CCCNCC3)nn12 [Example 67, N-(2-cyanothiophen-3-yl)-2-(1,4-diazepan-1-yl)pyrrolo[1,2-b]pyridazine-7-carboxamide trifluoroacetate]
The IC50 of the first is 3.2-fold higher: 636 nM for the first, 197 nM for the second. The second is the more potent here.

First: O=C(Nc1ccsc1Cl)c1ccc2ccc(N3CC4CCC3CN4)nn12 (stereo not shown) [Example 70, N-(2-chlorothiophen-3-yl)-2-(2,5-diazabicyclo[2.2.2]oct-2-yl)pyrrolo[1,2-b]pyridazine-7-carboxamide trifluoroacetate]
Second: N[C@H]1CCCC[C@H]1Nc1ccc2ccc(C(=O)Nc3ccsc3Cl)n2n1 [Example 71, 2-{[(1R,2S)-2-aminocyclohexyl]amino}-N-(2-chlorothiophen-3-yl)pyrrolo[1,2-b]pyridazine-7-carboxamide trifluoroacetate]
The IC50 of the first is 110-fold higher: 433 nM for the first, 4 nM for the second.

For `N#Cc1cscc1NC(=O)c1ccc2ccc(N[C@@H]3CCCC[C@@H]3N)nn12` [Example 73, 2-{[(1R,2S)-2-aminocyclohexyl]amino}-N-(4-cyanothiophen-3-yl)pyrrolo[1,2-b]pyridazine-7-carboxamide trifluoroacetate], the IC50 was 3 nM.
